Source: PubChem BioAssay AID192 (DTP/NCI, 2004)
Toxic doses and inconclusive results are not listed. Rule for the calls: active = survival T/C of 150% or more; inactive = T/C below 125% in these data.

Tested on: BDF1 mice, B16 melanoma ip, median survival T/C
Experiment: NCI In Vivo Anticancer Drug Screen. Data for tumor model B16 Melanoma (intraperitoneal) in B6D2F1 (BDF1) mice
Conditions: endpoint: median survival time, higher = longer survival
How it was run: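 Transplantable tumor model; survival or tumor size measured; reported as T/C, treated over vehicle control.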

[1] = dose: 12.5 mg/kg/injection, schedule: Q01DX009 (ip), vehicle: saline
[2] = dose: 25.0 mg/kg/injection, schedule: Q01DX009 (ip), vehicle: saline
[3] = dose: 50.0 mg/kg/injection, schedule: Q01DX009 (ip), vehicle: saline
[4] = dose: 200.0 mg/kg/injection, schedule: Q04DX003 (ip), vehicle: saline with Tween-80
[5] = dose: 400.0 mg/kg/injection, schedule: Q04DX003 (ip), vehicle: saline with Tween-80
[6] = dose: 200.0 mg/kg/injection, schedule: Q01DX009 (ip), vehicle: saline with Tween-80
[7] = dose: 12.5 mg/kg/injection, schedule: Q01DX009 (ip), vehicle: saline with Tween-80
[8] = dose: 50.0 mg/kg/injection, schedule: Q01DX009 (ip), vehicle: Klucel (hydroxypropylcellulose) (HPC)
[9] = dose: 100.0 mg/kg/injection, schedule: Q01DX009 (ip), vehicle: Klucel (hydroxypropylcellulose) (HPC)
[10] = dose: 200.0 mg/kg/injection, schedule: Q01DX009 (ip), vehicle: Klucel (hydroxypropylcellulose) (HPC)
[11] = dose: 6.25 mg/kg/injection, schedule: Q01DX009 (ip), vehicle: saline
[12] = dose: 25.0 mg/kg/injection, schedule: Q01DX009 (ip), vehicle: Klucel (hydroxypropylcellulose) (HPC)
[13] = dose: 12.5 mg/kg/injection, schedule: Q01DX009 (ip), vehicle: Klucel (hydroxypropylcellulose) (HPC)

Measured: T/C

c1cc2n(n1)CCN2
inactive: [1] 102 % of control | dose: 18.75 mg/kg/injection, schedule: Q01DX009 (ip), vehicle: saline 116 % of control | [2] 102 % of control | dose: 37.5 mg/kg/injection, schedule: Q01DX009 (ip), vehicle: saline 100 % of control | [3] 106 % of control | dose: 75.0 mg/kg/injection, schedule: Q01DX009 (ip), vehicle: saline 93 % of control | dose: 150.0 mg/kg/injection, schedule: Q01DX009 (ip), vehicle: saline 106 % of control | [4] 108 % of control | [5] 108 % of control

CCOC(=O)C(=CN1CCOCC1)C(=O)OCC
inactive: dose: 100.0 mg/kg/injection, schedule: Q01DX009 (ip), vehicle: saline with Tween-80 90 % of control | dose: 100.0 mg/kg/injection, schedule: Q04DX003 (ip), vehicle: saline with Tween-80 100 % of control | [6] 98 % of control | [4] 102 % of control | dose: 400.0 mg/kg/injection, schedule: Q01DX009 (ip), vehicle: saline with Tween-80 98 % of control | [5] 109 % of control

CCCCCCCCCCCCCCCCCCNC(=O)Oc1ccc(Cl)c(C)c1
inactive: dose: 100.0 mg/kg/injection, schedule: Q04DX003 (ip), vehicle: gum acacia 88 % of control | dose: 200.0 mg/kg/injection, schedule: Q04DX003 (ip), vehicle: gum acacia 90 % of control

O=C(CC1(Cl)C(F)(F)C(F)(F)C1(F)F)c1ccccc1
inactive: dose: 0.75 mg/kg/injection, schedule: Q01DX009 (ip), vehicle: saline with Tween-80 100 % of control | dose: 1.5 mg/kg/injection, schedule: Q01DX009 (ip), vehicle: saline with Tween-80 100 % of control | dose: 3.0 mg/kg/injection, schedule: Q01DX009 (ip), vehicle: saline with Tween-80 95 % of control | dose: 4.0 mg/kg/injection, schedule: Q04DX003 (ip), vehicle: saline 100 % of control | [7] 90 % of control | dose: 25.0 mg/kg/injection, schedule: Q04DX003 (ip), vehicle: saline with Tween-80 102 % of control

Cc1cccc(C2=NCCN2)c1C
inactive: dose: 5.0 mg/kg/injection, schedule: Q04DX003 (ip), vehicle: saline with Tween-80 116 % of control | dose: 20.0 mg/kg/injection, schedule: Q04DX003 (ip), vehicle: saline with Tween-80 116 % of control

CC[C@@H]1C[C@@H]2CN3CCc4c([nH]c5ccc(OC)cc45)C(C(=O)OC)(C2)C13
inactive: [8] 102 % of control | [9] 106 % of control | [10] 111 % of control

COP(=O)(OC)OCc1cnc(SC)nc1N
inactive: [3] 121 % of control | dose: 100.0 mg/kg/injection, schedule: Q01DX009 (ip), vehicle: saline 100 % of control

C/C(=C\c1ccccc1Cl)[N+](=O)[O-]
inactive: dose: 37.5 mg/kg/injection, schedule: Q01DX009 (ip), vehicle: Klucel (hydroxypropylcellulose) (HPC) 96 % of control | dose: 75.0 mg/kg/injection, schedule: Q01DX009 (ip), vehicle: Klucel (hydroxypropylcellulose) (HPC) 96 % of control

OCN(CO)c1nc(N(CO)CO)nc(N(CO)CO)n1
inactive: dose: 6.25 mg/kg/injection, schedule: Q01DX009 (ip), vehicle: saline with Tween-80 97 % of control | [7] 100 % of control | dose: 25.0 mg/kg/injection, schedule: Q01DX009 (ip), vehicle: saline with Tween-80 94 % of control | dose: 50.0 mg/kg/injection, schedule: Q01DX009 (ip), vehicle: saline with Tween-80 92 % of control | [6] 90 % of control

O=C(CCCl)NC(Cc1ccccc1)c1ccccc1 (stereo unspecified)
inactive: [9] 110 % of control | [10] 96 % of control | dose: 400.0 mg/kg/injection, schedule: Q01DX009 (ip), vehicle: Klucel (hydroxypropylcellulose) (HPC) 96 % of control

NC(=O)c1cc2c(N)[nH]nc2nc1N
inactive: [11] 106 % of control | [1] 100 % of control | [2] 95 % of control

CCCCC[C@H](CN(C)C)[C@H](O)/C=C/c1ccc(Cl)cc1
inactive: [11] 95 % of control | [1] 100 % of control | [2] 104 % of control

COc1ccccc1NC(N)=S
inactive: [12] 110 % of control | [8] 103 % of control | [9] 100 % of control

CCCCNC(=O)C1C=C2c3cccc4[nH]cc(c34)CC2N(C)C1 (stereo unspecified)
inactive: dose: 3.12 mg/kg/injection, schedule: Q01DX009 (ip), vehicle: Klucel (hydroxypropylcellulose) (HPC) 93 % of control | [13] 91 % of control | [12] 93 % of control | [8] 96 % of control

O=[N+]([O-])c1ccc(C(O)C=C(C(F)(F)F)C(F)(F)F)cc1 (stereo unspecified)
inactive: [13] 93 % of control | [12] 89 % of control

O=C(Nc1ccccc1)Nc1cc(C(F)(F)F)ccc1Cl
inactive: dose: 100.0 mg/kg/injection, schedule: Q04DX009 (ip), vehicle: Klucel (hydroxypropylcellulose) (HPC) 109 % of control | dose: 200.0 mg/kg/injection, schedule: Q04DX003 (ip), vehicle: carboxymethylcellulose (CMC) 90 % of control | dose: 200.0 mg/kg/injection, schedule: Q04DX009 (ip), vehicle: Klucel (hydroxypropylcellulose) (HPC) 106 % of control | dose: 400.0 mg/kg/injection, schedule: Q04DX003 (ip), vehicle: carboxymethylcellulose (CMC) 92 % of control | dose: 400.0 mg/kg/injection, schedule: Q04DX009 (ip), vehicle: Klucel (hydroxypropylcellulose) (HPC) 86 % of control

C[C@H](CN1CC(=O)NC(=O)C1)N1CC(=O)NC(=O)C1
inactive: dose: 8.0 mg/kg/injection, schedule: Q01DX009 (ip), vehicle: saline 108 % of control | dose: 16.0 mg/kg/injection, schedule: Q01DX009 (ip), vehicle: saline 120 % of control | dose: 16.0 mg/kg/injection, schedule: Q01DX009 (ip), vehicle: water 107 % of control | dose: 25.0 mg/kg/injection, schedule: Q04DX003 (ip), vehicle: water 111 % of control | dose: 32.0 mg/kg/injection, schedule: Q01DX009 (ip), vehicle: water 111 % of control | dose: 50.0 mg/kg/injection, schedule: Q04DX003 (ip), vehicle: water 94 % of control | dose: 100.0 mg/kg/injection, schedule: Q04DX003 (ip), vehicle: water 106 % of control | dose: 128.0 mg/kg/injection, schedule: Q01DX009 (ip), vehicle: water 101 % of control | dose: 200.0 mg/kg/injection, schedule: Q04DX003 (ip), vehicle: water 107 % of control

CSC(=C[N+](=O)[O-])SC
inactive: dose: 1.56 mg/kg/injection, schedule: Q01DX009 (ip), vehicle: water 108 % of control | dose: 3.13 mg/kg/injection, schedule: Q01DX009 (ip), vehicle: water 91 % of control | dose: 6.25 mg/kg/injection, schedule: Q01DX009 (ip), vehicle: water 95 % of control | dose: 12.5 mg/kg/injection, schedule: Q01DX009 (ip), vehicle: water 99 % of control | dose: 25.0 mg/kg/injection, schedule: Q01DX009 (ip), vehicle: water 89 % of control

O=C(O)[C@@H]1[C@H]2C[C@H]3c4[nH]c5ccccc5c4CCN3C[C@@H]2CC[C@@H]1O
inactive: [12] 89 % of control | [8] 88 % of control | [9] 97 % of control | [10] 92 % of control

Cc1noc(C)c1CON
inactive: dose: 12.5 mg/kg/injection, schedule: Q04DX003 (ip), vehicle: saline 118 % of control | dose: 25.0 mg/kg/injection, schedule: Q04DX003 (ip), vehicle: saline 118 % of control | dose: 50.0 mg/kg/injection, schedule: Q04DX003 (ip), vehicle: saline 123 % of control

O=C1[O][Hg][c]2cccc3cccc1c23
inactive: dose: 1.65 mg/kg/injection, schedule: Q04DX003 (ip), vehicle: saline with Tween-80 106 % of control | dose: 2.5 mg/kg/injection, schedule: Q01DX009 (ip), vehicle: saline with Tween-80 88 % of control | dose: 2.5 mg/kg/injection, schedule: Q04DX003 (ip), vehicle: saline with Tween-80 100 % of control | dose: 5.0 mg/kg/injection, schedule: Q01DX009 (ip), vehicle: saline with Tween-80 86 % of control | dose: 10.0 mg/kg/injection, schedule: Q04DX003 (ip), vehicle: saline with Tween-80 123 % of control
